Measured values published in patent publication US20240287028A1, “HERBICIDAL PHENYLURACILS” (BASF SE, priority 2021, published 2024).

How the values were obtained:
Assay in all cases: greenhouse herbicidal test, post-emergence treatment
Format in all cases: in vivo
[1] = system: Erigeron canadensis; conditions: application rate 4 g/ha, scale 0 to 100
Text: (§1) The culture containers used were plastic flowerpots containing loamy sand with approximately 3.0% of humus as the substrate. The seeds of the test plants were sown separately for each species.
(§2) For the pre-emergence treatment, the active ingredients, which had been suspended or emulsified in water, were applied directly after sowing by means of finely distributing nozzles. The containers were irrigated gently to promote germination and growth and subsequently covered with transparent plastic hoods until the test plants had rooted. This cover caused uniform germination of the test plants, unless this had been impaired by the active ingredients. For the post-emergence treatment, the test plants were first grown to a height of 3 to 15 cm, depending on the plant habit, and only then treated with the active ingredients which had been suspended or emulsified in water. For this purpose, the test plants were either sown directly and grown in the same containers, or they were first grown separately as seedlings and transplanted into the test containers a few days prior to treatment.
(§3) Depending on the species, the test plants were kept at 10-25° C. or 20-35° C., respectively. The test period extended over 2 to 3 weeks. During this time, the test plants were tended, and their response to the individual treatments was evaluated.
(§4) Evaluation was carried out using a scale from 0 to 100. 100 means no emergence of the test plants, or complete destruction of at least the aerial moieties, and 0 means no damage, or normal course of growth. A good herbicidal activity is given at values of at least 70 and a very good herbicidal activity is given at values of at least 85.

[2] = system: Setaria faberi; conditions: scale 0 to 100
Text: as §1, §2, §3, §4

[3] = system: Digitaria insularis; conditions: scale 0 to 100
Text: as §1, §2, §3, §4

Compound	damages, unwanted plants ERICA [1]	damages, unwanted plants SETFA ([2]; application rate 1 g/ha)	damages, unwanted plants SETFA ([2]; application rate 2 g/ha)	damages, unwanted plants SETFA ([2]; application rate 4 g/ha)	damages, unwanted plants TRCIN ([3]; application rate 2 g/ha)	damages, unwanted plants TRCIN ([3]; application rate 4 g/ha)
CCOC(=O)COc1ncccc1Oc1cc(-n2c(=O)cc(C(C)(F)F)n(C)c2=O)c(F)cc1Cl [Example 1.1, Ethyl 2-[[3-[2-chloro-5-[4-(1,1-difluoroethyl)-3-methyl-2,6-dioxo-pyrimidin-1-yl]-4-fluoro-phenoxy]-2-pyridyl]oxy]acetate]	100	80	90	95	95	100
CCOC(=O)COc1ncccc1Oc1cc(-n2c(=O)cc(C(F)(F)F)n(C)c2=O)c(F)cc1Cl [cmpd I-2-8]	65	70	85	90	90	90
